Earlier results on 1 compound are cited in US10729766B2 (priority 2013, dated 2020).

SMILES strings stand for the structures.

For data set [1] the following is noted: mice; single bolus low dose administration.

Consider `O=P1(N(CCCl)CCCl)NCCCO1` (stereo not shown) [Cyclophosphamide, N,N-bis(2-chloroethyl)-1,3,2-oxazaphosphinan-2-amine 2-oxide], for which, in data set [1], the “time of effects returning to normal” value is 7 to 10 days and the “time to nadir of effects after administration” value is ≤ 4 days. Besides, the “bioavailability, oral versus parenteral administration” value (human, in vivo, po) is given as “little difference in bioavailability”. In addition, the “peak plasma levels of the parent” value (varies between patients) is 3 to 11 h.
